≈ marks a conversion by molar mass, not a printed value.

The assay relates to L1210. The assay can be described thus: Cytotoxicity against mouse L1210 cells. Type of assay: functional, cell-based.
A word on the IC50: it is the midpoint of a concentration-inhibition curve. `CO[C@H]1C/C=C/c2nc(co2)-c2nc(co2)-c2nc(co2)[C@@H](OC)[C@@H](C)C(=O)/C=C/C[C@H](O)CC(=O)O[C@@H](C[C@H](OC)[C@@H](C)CCC(=O)[C@@H](C)[C@H](O)[C@H](C)/C=C/N(C)C=O)[C@@H]1C` [32-HYDROXYMYCALOLIDE A] came in with an IC50 of 0.013 µg/mL (≈ 0.015 µM).
As for `CO[C@H]1C/C=C/c2nc(co2)-c2nc(co2)-c2nc(co2)[C@@H](OC)[C@@H](C)C(=O)/C=C/C[C@H](O)CC(=O)O[C@@H](C[C@H](OC)[C@@H](C)CCC(O)[C@@H](C)[C@H](OC(C)=O)[C@H](C)/C=C/N(C)C=O)[C@@H]1C` (stereo partly drawn) [30-HYDROXYMYCALOLIDE A], the figure is 0.019 µg/mL (≈ 0.0209 µM); as for `COC(CO)C(=O)O[C@H](CC[C@H](C)[C@H](C[C@@H]1OC(=O)C[C@@H](O)C/C=C/C(=O)[C@H](C)[C@H](OC)c2coc(n2)-c2coc(n2)-c2coc(n2)/C=C/C[C@H](OC)[C@H]1C)OC)[C@H](C)[C@H](OC(C)=O)[C@H](C)/C=C/N(C)C=O` (stereo partly drawn) [38-HYDROXYMYCALOLIDE B], 0.015 µg/mL (≈ 0.0148 µM).

Source of the values: ChEMBL document CHEMBL1150951, “New mycalolides from the marine sponge Mycale magellanica and their interconversion” (J Nat Prod, 1998).
